Measured values as given in patent US20080153827A1, “Method for the Treatment or Prevention of Cardiac Hypertrophy” (priority 2004, published 2008).

Tests used:
Type in all cases: in vivo, rat
[1] = test system: Dahl salt-sensitive rats (SS/JrHsd) on high salt diet; test: Systolic blood pressure by tail cuff in Dahl salt-sensitive rats; settings: data not shown
Protocol: (§1) 6-week-old male Dahl salt-sensitive rats (SS/JrHsd) received the following diet and drug regimens for 7 weeks: 1) Dahl SS controls on high salt diet, 2) Dahl SS rats on high salt diet+high-dose levosimendan (10 mg/l of levosimendan in drinking water), 3) Dahl SS rats on high salt diet+low-dose levosimendan (1 mg/l of levosimendan in drinking water) and 4) Dahl SS controls on low salt diet. High salt diet was produced by adding NaCl to commercial low salt diet. The consumption of drinking water and food as well as the body weight and general health of the animals were monitored. Systolic blood pressure was measured by using a tail cuff blood pressure at week 3.5 and week 7. At the end the study the hearts was excised, washed with ice-cold saline, blotted dry and weighed.

[2] = test system: Dahl salt-sensitive rats (SS/JrHsd) on high salt diet; test: Heart weight/body weight ratio in Dahl salt-sensitive rats on high salt diet; settings: both doses (10 mg/l and 1 mg/l in drinking water), 7 weeks, FIG. 1
Protocol: as §1

[3] = test system: atrial natriuretic peptide (ANP) mRNA; test: Myocardial atrial natriuretic peptide (ANP) mRNA expression by quantitative real time PCR; settings: high dose (10 mg/l in drinking water), 7 weeks, high salt diet; FIG. 3
Protocol: as §1, with “At the end the study the hearts was excised, washed with ice-cold saline, blotted dry and weighed.” left out
Total RNA from the rat hearts were collected, treated with DNAse 1 and reverse transcribed to cDNA by incubation of 50 min in 45° C. with presence of reverse transcription enzyme (Enhanced avian HS RT-PCR kit, Sigma Chemicals Co.). 1 μl of cDNA was subjected to a quantitative real time polymerase chain reaction by Lightcycler instrument (Roche Diagnostics) for detection of ANP and GAPDH mRNAs. […] After amplification the quality of PCR products were analyzed with the melting step consisting of heating to 95° C., cooling to annealing temperature for 15 seconds, and finally a slow rise in temperature to 95° C. with a continuous acquisition of fluorescence decline. […]

[4] = test system: Myocardial SERCA2 and NCX expressions; test: Myocardial SERCA2/NCX protein ratio by Western blot; settings: both doses (10 mg/l and 1 mg/l in drinking water), 7 weeks, high salt diet; FIG. 2
Protocol: as §1
Myocardial SERCA2 and NCX expressions were determined by Western blot analysis using standard procedure. Myocardial samples were homogenized in extraction buffer and protease inhibitor. Myocardial samples (15 μg protein per lane) were electrophoretically separated by SDS-PAGE (8% Acryl amide). The proteins were transferred to a PVDF membrane by semi-dry blotting in electrophoresis device. […] The films were scanned in a densitometer and a semi-quantitative measurement of the relative intensity of each protein band was performed using the “GeneSnap”-software program.

[5] = test system: Dahl salt-sensitive rats (SS/JrHsd) on high salt diet; test: Echocardiography: interventricular septum (IVS) wall thickness; settings: 3.5 weeks, FIG. 4
Protocol: 6-week-old male Dahl salt-sensitive rats (SS/JrHsd) received the following diet and drug regimens: Dahl salt-sensitive rats on low salt diet (1), on high salt diet (2), on high salt diet treated with 10 mg/l of levosimendan in drinking water (3), on high salt diet treated with 1 mg/l of levosimendan in drinking water (4) and on high salt diet treated with 0.5 mg/kg of the active metabolite (II) (OR-1896) of levosimendan in drinking water (5). High salt diet was produced by adding NaCl to commercial low salt diet. After 3.5 weeks transthoracic echocardiography was performed using a Toshiba Ultrasound System and a 15 MHz linear transducer under light isoflurane anesthesia. Using two-dimensional imaging, a short axis view of the left ventricle at the level of the papillary muscles was obtained and the two-dimensionally guided M-mode recording through the anterior and posterior walls of the left ventricle was obtained.

CC1CC(=O)NN=C1c1ccc(NN=C(C#N)C#N)cc1 (single isomer, unassigned; (-)) [Levosimendan, (−)-enantiomer of [[4-(1,4,5,6-tetrahydro-4-methyl-6-oxo-3-pyridazinyl)phenyl]hydrazono]propanedinitrile]
blood pressure ([1]; high-dose (10 mg/l in drinking water)): produced a transient decrease in blood pressure
blood pressure ([1]; low-dose (1 mg/l in drinking water)): did not influence blood pressure
development of cardiac hypertrophy measured as heart weight-to-body weight-ratio [2]: equally prevented the development of cardiac hypertrophy
myocardial ANP mRNA expression [3]: decrease ANP mRNA expression to levels found in low salt diet controls
myocardial SERCA2-to-NCX-ratio [4]: increased SERCA2-to-NCX-ratio in the heart
Interventricular septum (IVS) wall thickness ([5]; 10 mg/l and 1 mg/l in drinking water): significantly reduce the increased heart wall thickness

CC(=O)Nc1ccc(C2=NNC(=O)C[C@H]2C)cc1 [active metabolite (II), (R)-N-[4-(1,4,5,6-tetrahydro-4-methyl-6-oxo-3-pyridazinyl)phenyl]acetamide]
Interventricular septum (IVS) wall thickness ([5]; 0.5 mg/kg in drinking water): significantly reduce the increased heart wall thickness
